# Experiments:
# rat livers [1] = test: Initial partial freezing protocol of rat livers at −6° C., SNMP recovery; details: glycerol 6% vol/vol with Snomax 1 g/L, 3-OMG 200 mM, PEG 5%
# rat livers [2] = test: Partial freezing of rat livers with 12% glycerol with or without ice modulators, SNMP recovery
# Description: Experimental design: FIG. 39 outlines the rat liver partial freezing protocol in eight consecutive steps: (1) liver procurement, (2) preconditioning during SNMP, (3) CPA preloading during hypothermic machine perfusion (HMP), (4) loading of final storage solution and ice modulators during HMP, (5) partial freezing of rat liver, (6) thawing of rat liver, (7) unloading of CPAs during HMP, and (8) functional recovery of frozen rat livers during SNMP.
# Within this protocol, we first compared partially frozen livers at −10° C. (n=4 livers) and −15° C. (n=9 livers) with 12% glycerol. Upon finding minimal differences between these two groups, we combined them as a control and compared them to livers partially frozen with 0.5 mg/ml (0.05% w/v) of AFGP (n=4 livers) or 0.1% X-1000/0.2% Z-1000 (total, 0.3% w/v; n=4 livers) ice modulating agents added to the preservation solution. After freezing, liver viability on SNMP was compared between the 12% glycerol control group and the two ice modulated groups.
# Partial freezing protocol: The rat liver perfusion system involved perfusion through the cannulated portal vein (PV) with regulation of pressure, flow, and temperature. Detailed set-up of the perfusion system has been previously described (see, e.g., ref. 34). The total rat hepatectomy protocol was approved by the Institutional Animal Care and Use Committee (IACUC) of Massachusetts General Hospital (Boston, MA). Livers were procured from male Lewis rats (250-300 g, age 10-12 weeks. Charles River Laboratories, Wilmington, MA) (FIG. 39, step 1). The bile duct was isolated and cannulated, and the rats were heparinized with 30U sodium heparin. PV splenic and gastric branches, as well as the hepatic artery were ligated prior to cannulation. The PV was subsequently cannulated with a 16-gauge catheter and immediately flushed with 40 ml of heparinized saline (1000U/ml at room temperature). The liver was then freed from all peritoneal attachments, flushed with an additional 20 ml of heparinized saline. After procurement, the liver was weighed, and machine perfusion was immediately initiated.
# Preconditioning during SNMP was initiated at 21° C. with a flow rate of 5 ml/min (FIG. 39, step 2). […] The rat livers were perfused for 1 hour with 500 ml of preconditioning solution including Williams E, 200 U/l of insulin, 2% w/v PEG, 50 g/L BSA, 100 mM 3-O-methylglucose (3-OMG), 10,000 U/l of heparin, 24 mg/L of dexamethasone, 25 mg/ml of hydrocortisone, 40,000 μg/l of penicillin, and 40,000 U/l of streptomycin and sodium bicarbonate as needed to maintain a physiological pH (see Table 9 for composition of all solutions).
# After 1 hour of preconditioning during SNMP, the temperature was decreased to 4° C. at a rate of ˜1° C./min. Flow rates were gradually adjusted as necessary to ensure a maximum perfusion pressure of 3-5 mmHg during HMP. The SNMP preconditioning solution was switched to 500 ml CPA preloading solution at 4° C. (including Williams E, 200 U/l of insulin, 2% PEG, 50 g/L BSA, 100 mM 3-OMG, 30 mM raffinose, 3% hydroxyethyl starch (HES), 6% glycerol, 4000 U/l of heparin, 24 mg/l of dexamethasone, 25 mg/ml of hydrocortisone, 40,000 μg/l of penicillin, 40,000 U/l of streptomycin, and sodium bicarbonate as needed to maintain a physiological pH) (FIG. 39, step 3; Table 9). HMP was continued for 1 hour to ensure complete equilibration of solution throughout the liver parenchyma. […]
# [3] = after SNMP recovery, pooled 1 and 5 days
structure (smiles),measurement,setting,value
"OCC(O)CO [GLY, glycerol]",vascular resistance (mean±SD),rat livers [1],0.11±0.05 mmHg*min/ml*g
same,edema,rat livers [1]; one-step hand syringe loading,> 60%
same,mean perfusate lactate,"rat livers [2]; 12% glycerol only, pooled 1 and 5 days, at time zero",1.17 ± 0.61 mmol/L
same,"function of livers frozen at −10° C. vs −15° C. (perfusion metrics, weight gain, ATP, EC)","rat livers [2]; 12% glycerol, pooled 1 and 5 days",not functionally different
same,H&E staining of liver parenchyma,rat livers [2]; after 1 and 5 day partial freezing,"sinusoidal damage and compression, peri-portal endothelial destruction"
same,TUNEL staining,rat livers [2]; after 1 and 5 days of frozen storage,remarkably less TUNEL staining
same,mean ATP,rat livers [2]; [3],0.187 ± 0.075 µg/mL
same,"mean energy charge (EC), (ATP+1/2ADP)/(ATP+ADP+AMP)",rat livers [2]; [3],0.066±0.032
same,final mean weight gain,"rat livers [2]; end of SNMP recovery vs weight after procurement, pooled 1 and 5 days",26.9±15.3%
same,mean vascular resistance,"rat livers [2]; pooled 1 and 5 days, at 0 hours",0.528±0.39 mmHg/ml/min
same,mean perfusate potassium,"rat livers [2]; pooled 1 and 5 days, at 1 hour",6.5 ± 1.01 mmol/L

# Source: US20240268372A1, “Methods and Compositions for Extending Organ and Tissue Preservation” (The General Hospital Corporation, priority 2021, published 2024)
